# Measured values: ChEMBL document CHEMBL1201862, “PubChem BioAssay data set” (2004)
#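 Results reflect a 48-hour exposure of cells in 96-well plates to compound at five concentrations. GI50: concentration for 50% inhibition of growth.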 Active and inactive are the calls of the source. Cut-off read from the data, not from the text of the source: active = GI50 up to about 1.1 µM and inactive = higher.
# Key:
# Test in all cases: inhibition of tumour cell growth, NCI panel, 48 h
# 786-0 = system: 786-0
# A498 = system: A498
# A549 = system: A549
# ACHN = system: ACHN
# BT-549 = system: BT-549
# CAKI-1 = system: CAKI-1
# CCRF-CEM = system: CCRF-CEM
# COLO 205 = system: COLO 205
# DU-145 = system: DU-145
# EKVX = system: EKVX
# HCT-116 = system: HCT-116
# HCT-15 = system: HCT-15
# HL-60 = system: HL-60
# HOP-62 = system: HOP-62
# HT-29 = system: HT-29
# Hs-578T = system: Hs-578T
# IGROV-1 = system: IGROV-1
# K562 = system: K562
# KM12 = system: KM12
# LOX IMVI = system: LOX IMVI
# M14 = system: M14
# MCF7 = system: MCF7
# MDA-MB-231 = system: MDA-MB-231
# MDA-MB-435 = system: MDA-MB-435
# MDA-N = system: MDA-N
# MOLT-4 = system: MOLT-4
# Malme-3M = system: Malme-3M
# NCI-H226 = system: NCI-H226
# NCI-H23 = system: NCI-H23
# NCI-H460 = system: NCI-H460
# NCI-H522 = system: NCI-H522
# NCI/ADR-RES = system: NCI/ADR-RES
# OVCAR-3 = system: OVCAR-3
# OVCAR-4 = system: OVCAR-4
# OVCAR-5 = system: OVCAR-5
# OVCAR-8 = system: OVCAR-8
# PC-3 = system: PC-3
# RPMI-8226 = system: RPMI-8226
# RXF 393 = system: RXF 393
# SF-268 = system: SF-268
# SF-295 = system: SF-295
# SF-539 = system: SF-539
# SK-MEL-28 = system: SK-MEL-28
# SK-MEL-2 = system: SK-MEL-2
# SK-MEL-5 = system: SK-MEL-5
# SK-OV-3 = system: SK-OV-3
# SN12C = system: SN12C
# SNB-19 = system: SNB-19
# SNB-75 = system: SNB-75
# SR = system: SR
# SW-620 = system: SW-620
# T47D = system: T47D
# U-251 = system: U-251
# UACC-62 = system: UACC-62
# UO-31 = system: UO-31
# HCC 2998 = system: HCC 2998
# HOP-92 = system: HOP-92
# TK-10 = system: TK-10
# UACC-257 = system: UACC-257
compound,measurement,setting,value
CCCCNS(=O)(=O)c1n[nH]c(=O)[nH]c1=O,GI50,786-0,> 100 µM (inactive)
same,GI50,A498,> 100 µM (inactive)
same,GI50,A549,> 100 µM (inactive)
same,GI50,ACHN,> 100 µM (inactive)
same,GI50,BT-549,> 100 µM (inactive)
same,GI50,CAKI-1,> 100 µM (inactive)
same,GI50,CCRF-CEM,14.1 µM (inactive)
same,GI50,COLO 205,> 100 µM (inactive)
same,GI50,DU-145,> 100 µM (inactive)
same,GI50,EKVX,> 100 µM (inactive)
same,GI50,HCT-116,> 100 µM (inactive)
same,GI50,HCT-15,> 100 µM
same,GI50,HL-60,> 100 µM (inactive)
same,GI50,HOP-62,23.5 µM (inactive)
same,GI50,HT-29,> 100 µM (inactive)
same,GI50,Hs-578T,> 100 µM (inactive)
same,GI50,IGROV-1,> 100 µM (inactive)
same,GI50,K562,> 100 µM (inactive)
same,GI50,KM12,> 100 µM (inactive)
same,GI50,LOX IMVI,> 100 µM (inactive)
same,GI50,M14,> 100 µM (inactive)
same,GI50,MCF7,> 100 µM (inactive)
same,GI50,MDA-MB-231,> 100 µM (inactive)
same,GI50,MDA-MB-435,> 100 µM (inactive)
same,GI50,MDA-N,> 100 µM (inactive)
same,GI50,MOLT-4,> 100 µM (inactive)
same,GI50,Malme-3M,> 100 µM (inactive)
same,GI50,NCI-H226,> 100 µM (inactive)
same,GI50,NCI-H23,> 100 µM (inactive)
same,GI50,NCI-H460,> 100 µM (inactive)
same,GI50,NCI-H522,> 100 µM (inactive)
same,GI50,NCI/ADR-RES,> 100 µM (inactive)
same,GI50,OVCAR-3,> 100 µM (inactive)
same,GI50,OVCAR-4,> 100 µM (inactive)
same,GI50,OVCAR-5,> 100 µM (inactive)
same,GI50,OVCAR-8,> 100 µM (inactive)
same,GI50,PC-3,> 100 µM (inactive)
same,GI50,RPMI-8226,> 100 µM (inactive)
same,GI50,RXF 393,> 100 µM (inactive)
same,GI50,SF-268,> 100 µM (inactive)
same,GI50,SF-295,16.9 µM (inactive)
same,GI50,SF-539,> 100 µM (inactive)
same,GI50,SK-MEL-28,> 100 µM (inactive)
same,GI50,SK-MEL-2,> 100 µM (inactive)
same,GI50,SK-MEL-5,> 100 µM (inactive)
same,GI50,SK-OV-3,17.6 µM (inactive)
same,GI50,SN12C,> 100 µM (inactive)
same,GI50,SNB-19,> 100 µM (inactive)
same,GI50,SNB-75,82.6 µM (inactive)
same,GI50,SR,> 100 µM (inactive)
same,GI50,SW-620,> 100 µM (inactive)
same,GI50,T47D,> 100 µM (inactive)
same,GI50,U-251,> 100 µM (inactive)
same,GI50,UACC-62,> 100 µM (inactive)
same,GI50,UO-31,> 100 µM (inactive)
Cn1c2ccccc2c(=S)c2cc(NC(=O)CCCCC(=O)Nc3ccc4c(c3)c(=S)c3ccccc3n4C)ccc21,GI50,786-0,72.1 µM (inactive)
same,GI50,A498,> 100 µM (inactive)
same,GI50,A549,> 100 µM (inactive)
same,GI50,ACHN,> 100 µM (inactive)
same,GI50,BT-549,> 100 µM (inactive)
same,GI50,CAKI-1,> 100 µM (inactive)
same,GI50,CCRF-CEM,> 100 µM (inactive)
same,GI50,COLO 205,> 100 µM (inactive)
same,GI50,DU-145,> 100 µM (inactive)
same,GI50,EKVX,> 100 µM (inactive)
same,GI50,HCC 2998,> 100 µM (inactive)
same,GI50,HCT-116,> 100 µM (inactive)
same,GI50,HCT-15,> 100 µM
same,GI50,HOP-62,54.7 µM (inactive)
same,GI50,HOP-92,> 100 µM (inactive)
same,GI50,HT-29,> 100 µM (inactive)
same,GI50,Hs-578T,> 100 µM (inactive)
same,GI50,IGROV-1,> 100 µM (inactive)
same,GI50,K562,> 100 µM (inactive)
same,GI50,KM12,> 100 µM (inactive)
same,GI50,LOX IMVI,> 100 µM (inactive)
same,GI50,M14,> 100 µM (inactive)
same,GI50,MCF7,> 100 µM (inactive)
same,GI50,MDA-MB-231,65.9 µM (inactive)
same,GI50,MDA-MB-435,> 100 µM (inactive)
same,GI50,MDA-N,> 100 µM (inactive)
same,GI50,MOLT-4,> 100 µM (inactive)
same,GI50,NCI-H226,> 100 µM (inactive)
same,GI50,NCI-H23,> 100 µM (inactive)
same,GI50,NCI-H460,> 100 µM (inactive)
same,GI50,NCI-H522,> 100 µM (inactive)
same,GI50,NCI/ADR-RES,> 100 µM (inactive)
same,GI50,OVCAR-3,> 100 µM (inactive)
same,GI50,OVCAR-5,> 100 µM (inactive)
same,GI50,OVCAR-8,34.3 µM (inactive)
same,GI50,PC-3,> 100 µM (inactive)
same,GI50,RPMI-8226,> 100 µM (inactive)
same,GI50,RXF 393,> 100 µM (inactive)
same,GI50,SF-268,> 100 µM (inactive)
same,GI50,SF-295,> 100 µM (inactive)
same,GI50,SF-539,> 100 µM (inactive)
same,GI50,SK-MEL-28,> 100 µM (inactive)
same,GI50,SK-MEL-2,> 100 µM (inactive)
same,GI50,SK-MEL-5,> 100 µM (inactive)
same,GI50,SK-OV-3,> 100 µM (inactive)
same,GI50,SN12C,> 100 µM (inactive)
same,GI50,SNB-19,> 100 µM (inactive)
same,GI50,SNB-75,54 µM (inactive)
same,GI50,SR,> 100 µM (inactive)
same,GI50,SW-620,> 100 µM (inactive)
same,GI50,T47D,> 100 µM (inactive)
same,GI50,TK-10,> 100 µM (inactive)
same,GI50,U-251,55.8 µM (inactive)
same,GI50,UACC-257,> 100 µM (inactive)
same,GI50,UACC-62,> 100 µM (inactive)
same,GI50,UO-31,> 100 µM (inactive)
Cc1ccc2c(c1)NC(=O)CC(c1ccccc1)=N2,GI50,786-0,> 100 µM (inactive)
same,GI50,A498,> 100 µM (inactive)
same,GI50,A549,81.7 µM (inactive)
same,GI50,ACHN,> 100 µM (inactive)
same,GI50,BT-549,> 100 µM (inactive)
same,GI50,CAKI-1,> 100 µM (inactive)
same,GI50,DU-145,> 100 µM (inactive)
same,GI50,EKVX,> 100 µM (inactive)
same,GI50,HCC 2998,> 100 µM (inactive)
same,GI50,HCT-116,61.5 µM (inactive)
same,GI50,HCT-15,61.4 µM
same,GI50,HOP-62,> 100 µM (inactive)
same,GI50,HOP-92,> 100 µM (inactive)
same,GI50,HT-29,> 100 µM (inactive)
same,GI50,Hs-578T,> 100 µM (inactive)
same,GI50,IGROV-1,> 100 µM (inactive)
same,GI50,K562,5.18 µM (inactive)
same,GI50,KM12,43.9 µM (inactive)
same,GI50,LOX IMVI,> 100 µM (inactive)
same,GI50,M14,> 100 µM (inactive)
same,GI50,MCF7,71.8 µM (inactive)
same,GI50,MDA-MB-231,23.7 µM (inactive)
same,GI50,MDA-MB-435,31 µM (inactive)
same,GI50,MDA-N,23.7 µM (inactive)
same,GI50,MOLT-4,28.6 µM (inactive)
same,GI50,Malme-3M,> 100 µM (inactive)
same,GI50,NCI-H226,> 100 µM (inactive)
same,GI50,NCI-H23,> 100 µM (inactive)
same,GI50,NCI-H460,> 100 µM (inactive)
same,GI50,NCI-H522,45.6 µM (inactive)
same,GI50,NCI/ADR-RES,77.4 µM (inactive)
same,GI50,OVCAR-3,> 100 µM (inactive)
same,GI50,OVCAR-4,> 100 µM (inactive)
same,GI50,OVCAR-5,> 100 µM (inactive)
same,GI50,OVCAR-8,> 100 µM (inactive)
same,GI50,PC-3,97.1 µM (inactive)
same,GI50,RPMI-8226,17.4 µM (inactive)
same,GI50,SF-268,> 100 µM (inactive)
same,GI50,SF-295,> 100 µM (inactive)
same,GI50,SF-539,> 100 µM (inactive)
same,GI50,SK-MEL-28,> 100 µM (inactive)
same,GI50,SK-MEL-2,> 100 µM (inactive)
same,GI50,SK-MEL-5,40 µM (inactive)
same,GI50,SK-OV-3,> 100 µM (inactive)
same,GI50,SN12C,> 100 µM (inactive)
same,GI50,SNB-19,> 100 µM (inactive)
same,GI50,SNB-75,76.7 µM (inactive)
same,GI50,SR,23.7 µM (inactive)
same,GI50,SW-620,> 100 µM (inactive)
same,GI50,T47D,70.6 µM (inactive)
same,GI50,TK-10,> 100 µM (inactive)
same,GI50,U-251,> 100 µM (inactive)
same,GI50,UACC-257,> 100 µM (inactive)
same,GI50,UACC-62,> 100 µM (inactive)
same,GI50,UO-31,63.1 µM (inactive)
